Consider 80 compounds from the METLIN SMRT retention time set (Domingo-Almenara et al. 2019).

A short description of this data set: gradient 5% acetonitrile 3 min, to 50% in 2 min, to 85% in 15 min, held 3 min, 100 µL/min. To be noted: column: Zorbax Extend-C18 2.1 x 50 mm; eluents: water / acetonitrile, 0.1% formic acid. An outline of the steps:
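Retention time was recorded from adduct peaks, which were picked computationally and each inspected manually. Pure standards ran in mixtures of ~100 molecules on HPLC coupled to a quadrupole time-of-flight mass spectrometer, in positive and negative ionization mode, through a Zorbax Extend-C18 column (2.1 × 50 mm, 1.8 μm) at 100 μL/min. Eluents were water and acetonitrile, each with 0.1% formic acid.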
`O=C(N1CCCC1c1nc(CCOCC2CC2)no1)C1(c2ccccc2)CC1` (stereo not given) registered an RP-LC retention time of 886 s.

Turning to `Cc1cccc(-c2noc(C3CCCN3C(=O)NCC3CCCO3)n2)c1` (stereo not given), the RP-LC retention time came to 818 s.

Compound `CN(CCNc1nc2ccncc2n(Cc2ccccc2)c1=O)C1CCCCC1` had an RP-LC retention time of 573 s.

`CCn1ccc2sc(C)c(C(=O)NC(C)c3ccc(C)cc3C)c2c1=O` (stereo not given): the RP-LC retention time is 975 s.

The compound `COc1ccc(-c2noc(Cn3ccn(-c4ccccc4OC)c(=O)c3=O)n2)cc1` had an RP-LC retention time of 623 s.

Take `COc1ccc(N2CCN(C(=O)c3cn4c(n3)CCCC4)CC2)cc1`: the RP-LC retention time is 574 s.

`CCn1ccc2sc(C)c(C(=O)NCc3ccc(Br)cc3)c2c1=O` displayed an RP-LC retention time of 911 s.

Compound `CCC(=O)NCc1nc(-c2ccccc2Cl)no1` registered an RP-LC retention time of 717 s.

`O=C(NCCOc1ccc2c(c1)OCO2)c1ccccc1Cl` registered an RP-LC retention time of 785 s.

In turn, `CCOC(=O)c1ccc(NC(=O)CCc2c(-c3ccc(F)cc3)nc3ccccn23)cc1` gave an RP-LC retention time of 700 s.

`O=C([C@H]1C[C@@H](F)CN1S(=O)(=O)c1cccc(C(F)(F)F)c1)N1CCOCC1` registered an RP-LC retention time of 769 s.

The compound `COC(=O)C(C)Sc1ncnc2c1oc1ccccc12` (stereo not given) gave an RP-LC retention time of 906 s.

The compound `Fc1ccccc1-c1ccc(CNCc2cccs2)o1` had an RP-LC retention time of 706 s.

`C=CCNC(=O)c1nnn(Cc2ccc(Cl)cc2)c1-n1cccc1` showed an RP-LC retention time of 954 s.

Turning to `Cc1ccsc1C(=O)N1C[C@@H]2CCCN3CCC[C@@H]([C@H]23)[C@H]1CCCC(=O)NCC1CC1`, the RP-LC retention time worked out at 612 s.

The compound `CC1CCN(c2cc(-n3cnc(C(=O)N4CCC(N5CCCCC5)CC4)c3)ncn2)CC1` gave an RP-LC retention time of 662 s.

`CCCCOc1ccc(NC(=O)c2cc(=O)c3cc(Br)ccc3o2)c2cccnc12`: the RP-LC retention time was 811 s.

`COc1ccc(-c2nsc(SCC(=O)N3CCCc4ccccc43)n2)cc1` came in with an RP-LC retention time of 1110 s.

On to `COc1ccc(NC(=O)NCC23CCCC=C2N(C)C(=O)CC3)cc1` (stereo not given), for which the RP-LC retention time worked out at 740 s.

On to `CS(=O)(=O)c1ccc(Sc2nc3ccccc3s2)c([N+](=O)[O-])c1`, for which the RP-LC retention time turned out to be 900 s.

Turning to `Cc1cnn(Cc2nc(-c3ccc(NC(=O)c4sccc4C)cc3)oc2C)c1`, the RP-LC retention time was determined as 938 s.

`Cc1nn(-c2ccc(-c3ccccc3)nn2)c(C)c1S(=O)(=O)NCc1ccc2c(c1)OCO2` came in with an RP-LC retention time of 978 s.

Compound `Cn1c(=O)sc2cc(S(=O)(=O)N3CCC(C(=O)NC4CCCCC4)CC3)ccc21` yielded an RP-LC retention time of 822 s.

In turn, `CC(C)CCNC(=O)c1cc2n(n1)CC(C)(C(=O)NCc1ccccc1)N(C)C2=O` (stereo not given) registered an RP-LC retention time of 758 s.

On to `Cc1ccccc1Cc1nc(C2CC(=O)N(c3ccc(F)c(Cl)c3)C2)no1` (stereo not given), for which the RP-LC retention time was determined as 1090 s.

`Nc1ccc(Cl)cc1C(=O)c1ccccc1Cl` returned an RP-LC retention time of 1140 s.

In the case of `Cc1cccc(NC(=O)c2cn3c(n2)CCCC3)c1C`, the RP-LC retention time was 603 s.

The compound `Cc1ccc(NC(=O)c2ccc(=O)n(CCN3CCOCC3)c2)cc1` gave an RP-LC retention time of 611 s.

`O=C(NC1CCCCC1)c1csc(-c2ccc(N3CCCC3)nc2)n1` displayed an RP-LC retention time of 739 s.

For `COc1ccc(-c2cc(=O)n(CC(=O)Nc3cccc4nsnc34)cn2)cc1`, the RP-LC retention time amounted to 748 s.

`CCC(Sc1nnc2c3ccccc3n(C(C)C)c2n1)C(=O)Nc1nc(-c2ccccc2)cs1` (stereo not given) displayed an RP-LC retention time of 1310 s.

Take `Cc1ccc(-c2cc3c4nnc(CCC(=O)NCc5ccccc5C(F)(F)F)n4ccn3n2)cc1C`: the RP-LC retention time was found to be 952 s.

For `CCc1nc2ccc(-c3noc(C(C)NC(=O)c4ccco4)n3)cc2n1CC` (stereo not given), the RP-LC retention time amounted to 621 s.

`CCc1nc(-c2ccnc(N3CCCC3)c2)no1` showed an RP-LC retention time of 616 s.

`COC(=O)c1c(C)[nH]c(C(=O)N2CCCC(C(=O)N3CCN(c4ccccc4)CC3)C2)c1C` (stereo not given) displayed an RP-LC retention time of 790 s.

`Cc1ccc(-c2nnc(N3CCC(C(=O)NCc4ccc(C)o4)CC3)o2)cc1` registered an RP-LC retention time of 853 s.

The compound `CCCNc1cc(-n2cccn2)ncn1` showed an RP-LC retention time of 668 s.

Compound `Cc1cc(NC(=O)c2ncccn2)no1` registered an RP-LC retention time of 577 s.

Compound `O=C(O)CSc1nnc(COc2cccc3cccnc23)n1-c1ccccc1` came in with an RP-LC retention time of 577 s.

As for `COc1ccc(NC(=O)C2CCN(C(=O)c3ncn4c3COC(c3ccc(OC)cc3)C4)CC2)cc1` (stereo not given), the RP-LC retention time is 760 s.

In the case of `COc1ccc(NC(=O)N2C[C@@H](F)C[C@H]2C(=O)N2CCCCC2)cc1OC`, the RP-LC retention time was found to be 643 s.

Compound `Cc1noc(-c2ccc(-n3ncc(C(=O)N4CCN(c5ccccn5)CC4)c3C)nc2)n1` gave an RP-LC retention time of 624 s.

For `COc1ccc(-c2noc(Cn3ccnc3)n2)cc1`, the RP-LC retention time turned out to be 601 s.

Compound `Cc1ccc(CNC(=O)Cn2nc3c4cc(-c5cc(C)ccc5C)nn4ccn3c2=O)cc1` registered an RP-LC retention time of 985 s.

`O=c1n(Cc2cc(F)cc(F)c2)nc2ccc(S(=O)(=O)N3CCOCC3)cn12` registered an RP-LC retention time of 816 s.

The compound `O=C(Cn1ncccc1=O)NCc1ccco1` registered an RP-LC retention time of 542 s.

Compound `O=C1c2cccc(NCCCNCCO)c2C(=O)c2cccc(NCCCNCCO)c21` showed an RP-LC retention time of 583 s.

`CCCn1ccc2sc(C)c(C(=O)NCc3ccccc3F)c2c1=O` returned an RP-LC retention time of 908 s.

Regarding `COC(=O)c1cc2c(cn1)[nH]c1ccccc12`, the RP-LC retention time came out at 704 s.

Compound `CCCN1C(=O)c2cccnc2Sc2cc(C(=O)N3CCC(C)CC3)ccc21` gave an RP-LC retention time of 856 s.

For `COc1cccc(CNC(=O)N2CCc3nc[nH]c3C2)c1`, the RP-LC retention time turned out to be 625 s.

Regarding `Cc1ccc(-c2nc3ncccn3c2NCc2ccccc2)cc1`, the RP-LC retention time was determined as 729 s.

Compound `COCCn1nc2n(c1=O)CCN(C(=O)c1ccc(Br)o1)CC2` displayed an RP-LC retention time of 636 s.

`Cc1ccc(NC(=O)N2CCCC2c2nc(-c3ccccc3C)no2)cc1` (stereo not given) had an RP-LC retention time of 598 s.

The compound `COC(=O)c1nc(NC(=O)Cn2nc3c(cc2=O)CCCC3)sc1Cc1ccccc1` came in with an RP-LC retention time of 868 s.

In the case of `Cc1sc2ccn(C)c(=O)c2c1C(=O)NC1CCCCC1`, the RP-LC retention time came out at 716 s.

Take `Cc1cccc(OCC(=O)N2CCc3cc(-c4ccno4)ccc32)c1`: the RP-LC retention time turned out to be 974 s.

Take `Cc1ccc(C2Cn3cnc(C(=O)N4CCC(C(=O)NC5CCCCC5)CC4)c3CO2)cc1` (stereo not given): the RP-LC retention time came to 794 s.

For `CN(C)C(=O)c1cccc(COc2ccc(N3C(N)=NC(N)=NC3(C)C)cc2Cl)c1`, the RP-LC retention time amounted to 659 s.

For `Cc1ccc(S(=O)(=O)[C@H]2CS(=O)(=O)C[C@@H]2N2CCN(c3ccc(F)cc3)CC2)cc1`, the RP-LC retention time is 962 s.

Compound `Cc1cc(Br)ccc1-c1ccc(CNCCO)o1` had an RP-LC retention time of 662 s.

Compound `CCN1C=C(C(=O)OCc2ccc(C)cc2)C(C)=NS1(=O)=O` had an RP-LC retention time of 1030 s.

Regarding `Cc1cc(C)cc(NC(=O)C2CC(=O)N(CCc3c[nH]c4ccc(F)cc34)C2)c1` (stereo not given), the RP-LC retention time was 889 s.

As for `COc1ccc(C(=O)Nc2nnc(SCc3nnc(-c4ccccc4C)o3)s2)cc1OC`, the RP-LC retention time was found to be 898 s.

Compound `COc1ccc(C)cc1NC(=O)Cn1nc2c(Oc3cc(C)cc(C)c3)nccn2c1=O` yielded an RP-LC retention time of 1050 s.

With `O=C(C1=CCN(Cc2ccccc2)CC1)N1CCN(c2cccc(Cl)c2)CC1`, the RP-LC retention time amounted to 707 s.

The compound `O=C(NCc1cccc(Cl)c1)C1CCCN(c2nccnc2Sc2ccccc2)C1` (stereo not given) yielded an RP-LC retention time of 1080 s.

`O=C(NCc1ccc2c(c1)OCO2)C1CCCN(C(=O)c2cc(-c3ccccn3)n[nH]2)C1` (stereo not given) yielded an RP-LC retention time of 655 s.

The compound `Cc1ccc(Nc2nc(NCc3cccnc3)nc3[nH]ncc23)cc1` came in with an RP-LC retention time of 540 s.

Compound `CCc1ccc2[nH]c3c(c(=O)c2c1)CN(CC(=O)Nc1cccc(C#N)c1)CC3` had an RP-LC retention time of 626 s.

Consider `O=C(Nc1cnn(-c2ncncc2N2CCOCC2)c1)c1cc2c(s1)CCCC2`, for which the RP-LC retention time amounted to 789 s.

Turning to `O=C(NCc1cccnc1)C1CCN(C(=O)c2ncn3c2COC(c2ccccc2)C3)CC1` (stereo not given), the RP-LC retention time is 568 s.

In the case of `Cc1ccc(CNC(=O)C2(C)CCCN(C(=O)Nc3cccc(C)c3C)C2)cc1` (stereo not given), the RP-LC retention time is 978 s.

For the compound `COCCOCc1nc(C2CCN(S(=O)(=O)c3cccc4nsnc34)C2)no1` (stereo not given), the RP-LC retention time came to 769 s.

Turning to `COc1ccccc1-c1nnc(-c2ccc(OC)c(S(=O)(=O)N3CCCC3)c2)o1`, the RP-LC retention time came out at 830 s.

The compound `CCOC(=O)c1ccc(NC(=O)c2sccc2S(=O)(=O)N(C)c2ccc(OCC)cc2)cc1` had an RP-LC retention time of 1230 s.

`CCc1cccc(C)c1NC(=O)Cn1c(N(C)Cc2ccccc2)nc(C)cc1=O` returned an RP-LC retention time of 857 s.

In turn, `COc1cccc(NC(=O)C2CCN(S(=O)(=O)c3cc(C(=O)N(C)C)cs3)CC2)c1` yielded an RP-LC retention time of 760 s.

`O=C(Nc1ccc(Br)cc1F)C1CCCN(c2ccc(=O)n(-c3cccc(F)c3)n2)C1` (stereo not given) had an RP-LC retention time of 1020 s.

The compound `COC(=O)c1ccc2c(=O)n(CCc3ccccc3)c(N3CCCCCC3)nc2c1` showed an RP-LC retention time of 1300 s.
